# Assay results reported in patent EP1769804B1, “hPTH(1-34) for use in preventing or reducing the incidence or severity of vertebral and / or non vertebral fracture in a male human” (priority 1998, dated 2012).
# Marks after values point to notes of the source that are not given here.
# Experiments:
# [1] = test system: cortical bone of the humerus; assay: Histomorphometry and polarized Fourier transform infrared microscopy of humerus cortical bone; type: in vivo, Macaca fascicularis
# Experimental: (§1) For certain experimental subjects, cortical bone of the humerus was examined by histomorphometry and by polarized Fourier transform infrared microscopy. The Fourier transform infrared microscopy was conducted by an adaptation of known methods for such microscopy.
# [2] = test system: Ovariectomized Primates; assay: Biomechanical measure of strength of femur neck; type: in vivo, Macaca fascicularis; set-up: Fa, Proximal femur neck: unit not given here; conditions: for Fa, Proximal femur neck: mean ± SEM
# Text: (§2) Biomechanical tests were done on lumbar vertebrae L-3 to L-4, the femur neck, humerus midshaft, and on a cortical bone specimen machined from the femur diaphysis (measures defined in Table 2). Conventional static and dynamic histomorphometry were done (measures described in Table 6) on the humerus midshaft, lumbar vertebra L-2, femoral neck, femur midshaft, the radius midshaft and distal radius. Initial statistical analyses compared all groups to vehicle-treated ovariectomized controls. The data is suitable for additional exploratory analyses to examine dose dependency, effects of withdrawal, interactions between outcomes, and changes in time by methods known to those of skill in the art. All assays were conducted and determined by methods known in the art.
# [3] = test system: Ovariectomized Primates; assay: Biomechanical measures of strength in the spine (lumbar vertebrae L-3 and L-4); type: in vivo, Macaca fascicularis; conditions: for A (cross-sectional area) / E (Young's modulus) / Fy (yield force) / S (stiffness): L-3 and L-4 combined, mean ± SEM
# Text: as §2
# [4] = test system: ovariectomized cynomolgus monkeys; conditions: cynomolgus monkey, in vivo
# Experimental: The live phase of the study used feral, adult (closed growth plates) cynomolgus primates (Macaca fascicularis), weighing 2.77±0.03 kg (mean ± standard error of the mean [SEM]). Monkeys were held in quarantine for 3 months, then started on a diet containing 0.3% calcium, 0.3% phosphate, and 250 IU vitamin D3/100 g diet, and given fluoridated water (1 ppm fluoride) ad libitum. The calcium content corresponded to 1734 mg calcium/2000 calories. After 1 month on the diet, animals were sorted into groups of 21 or 22, sham operated or ovariectomized. Once daily subcutaneous injections of vehicle (sham and ovariectomized controls) or rhPTH(1-34), at 1 µg/kg (PTH1) or 5 µg/kg (PTH5), were started 24 hours after ovariectomy. Animals were treated for either 18 months (PTH1 and PTHS), or for 12 months followed by withdrawal of treatment (PTH1-W and PTH5-W).
# [5] = test system: rodents; assay: In vivo mechanistic studies in rodents; conditions: after the first dose
# [6] = test system: post-menopausal women; assay: Clinical trial: number of non-vertebral fractures; type: in vivo, Humans
# [7] = test system: Ovariectomized Primates; assay: Cortical histomorphometry of the humerus midshaft; type: in vivo, Macaca fascicularis; conditions: PTH1-W: withdrawal after 1 µg/kg for 12 months; mean ± SEM
# Text: as §2, §1
# [8] = compared to ovariectomized controls
# [9] = PTH1-W: withdrawal for 6 months after 1 µg/kg for 12 months
# [10] = PTH5-W: withdrawal for 6 months after 5 µg/kg for 12 months
substance,measurement,setting,value
teriparatide [rhPTH(1-34)],bone quality (crystallites),[1],improved bone quality by replacing old bone (large crystallites) with young bone
same,"Fa, Proximal femur neck",[2]; PTH1-W: withdrawal after 1 µg/kg for 12 months,1258 ± 52^a
same,"Fa, Proximal femur neck",[2]; PTH1: 1 µg/kg for 18 months,1235 ± 43^a
same,"Fa, Proximal femur neck",[2]; PTH5-W: withdrawal after 5 µg/kg for 12 months,1213 ± 42
same,"Fa, Proximal femur neck",[2]; PTH5: 5 µg/kg for 18 months,1362 ± 30^a
same,improvement of strength in the femur neck (fu),[2]; [8],up to 12%
same,A (cross-sectional area),[3]; [9],90.9±2.3 mm^2
same,E (Young's modulus),[3]; [9],659±42 Mpa
same,Fy (yield force),[3]; [9],1899±73^a N
same,S (stiffness),[3]; [9],7401±432^a N/mm
same,E (Young's modulus),[3]; PTH1: 1 µg/kg for 18 months,717±48^a Mpa
same,Fy (yield force),[3]; PTH1: 1 µg/kg for 18 months,1915±105^a N
same,S (stiffness),[3]; PTH1: 1 µg/kg for 18 months,7701 ± 474^a N/mm
same,A (cross-sectional area),[3]; [10],82.8±2.1 mm^2
same,E (Young's modulus),[3]; [10],698±41^a Mpa
same,Fy (yield force),[3]; [10],1792±39^a N
same,S (stiffness),[3]; [10],7074±314^a N/mm
same,A (cross-sectional area),[3]; PTH5: 5 µg/kg for 18 months,87.3±2.7 mm^2
same,E (Young's modulus),[3]; PTH5: 5 µg/kg for 18 months,759±36^a Mpa
same,Fy (yield force),[3]; PTH5: 5 µg/kg for 18 months,2113±77^3.0 N
same,S (stiffness),[3]; PTH5: 5 µg/kg for 18 months,8012 ±367^a N/mm
same,increase of strength (Fy) in the vertebrae,[3]; [8],up to 43%
same,sustained hypercalcemia or kidney pathology,[4],no evidence of sustained hypercalcemia or kidney pathology
same,time to detectable increase in bone forming surfaces,[5],≤ 24 h
same,"number of non-vertebral fractures, Ankle",[6]; PTH-20 (N=541),2
same,"number of non-vertebral fractures, Foot",[6]; PTH-20 (N=541),1
same,"number of non-vertebral fractures, Hip",[6]; PTH-20 (N=541),2
same,"number of non-vertebral fractures, Humerus",[6]; PTH-20 (N=541),4
same,"number of non-vertebral fractures, Other",[6]; PTH-20 (N=541),14
same,"number of non-vertebral fractures, Pelvis",[6]; PTH-20 (N=541),1
same,"number of non-vertebral fractures, Radius",[6]; PTH-20 (N=541),7
same,"number of non-vertebral fractures, Ribs",[6]; PTH-20 (N=541),5
same,"number of non-vertebral fractures, Total",[6]; PTH-20 (N=541),34
same,"number of non-vertebral fractures, Total w/o ""Other""",[6]; PTH-20 (N=541),21
same,"number of non-vertebral fractures, Ankle",[6]; PTH-40 (N=552),2
same,"number of non-vertebral fractures, Foot",[6]; PTH-40 (N=552),4
same,"number of non-vertebral fractures, Hip",[6]; PTH-40 (N=552),3
same,"number of non-vertebral fractures, Humerus",[6]; PTH-40 (N=552),3
same,"number of non-vertebral fractures, Other",[6]; PTH-40 (N=552),9
same,"number of non-vertebral fractures, Pelvis",[6]; PTH-40 (N=552),0
same,"number of non-vertebral fractures, Radius",[6]; PTH-40 (N=552),10
same,"number of non-vertebral fractures, Ribs",[6]; PTH-40 (N=552),5
same,"number of non-vertebral fractures, Total",[6]; PTH-40 (N=552),32
same,"number of non-vertebral fractures, Total w/o ""Other""",[6]; PTH-40 (N=552),24
same,Ac.F (Activation frequency),[7],3.05 ± 2.15^a cycles/year
same,"B.Ar (Bone area, the total area within the periosteal surface)",[7],54.94 ± 6.55 mm^2
same,"BFR/BS.Ec (bone formation rate, endocortical surface referent)",[7],14.89 ± 10.32 µm/day
same,"BFR/BS.Ps (Bone formation rate, periosteal surface referent)",[7],3.60 ± 3.84^a µm/day
same,"BFR/BV (Bone formation rate, bone volume referent)",[7],4.39 ± 3.48^a %/year
same,Ct.Ar (Cortical area),[7],38.10 ± 4.83 mm^2
same,FP (Formation period),[7],64.94 ± 11.99 days
same,L.On.N/Ct.A (Number of fluorochrome labeled osteons per unit cortical area),[7],0.50 ± 0.36^a #/mm^2
same,"MAR (Mineral apposition rate, intracortical)",[7],1.06 ± 0.27 µm/day
same,"MAR.Ec (Mineral apposition rate, endocortical surface)",[7],0.66 ± 0.16 µm/day
same,"MAR.Ps (mineral apposition rate, periosteal surface)",[7],0.54 ± 0.15^a µm/day
same,MS/BS.Ec (mineralizing endocortical surface normalized to total endocortical surface),[7],11.74 ± 14.41^a %
same,MS/BS.Ps (Mineralizing periosteal surface normalized to total periosteal surface),[7],3.86 ± 4.83^a %
same,Me.Ar (Medullary cavity area),[7],16.84 ± 3.74 mm^2
same,O.Wi (Osteoid width),[7],3.96 ± 0.83 µm
